Assays:
Format in all cases: cell-based
human salivary sediment [1] = test: pH response of salivary sediment incubated with individual amino acids, with or without 28 mM urea; details: 37° C.
Method: (§1) To obtain human salivary sediment for performance of the experiments described herein, paraffin wax (4.02 g) was chewed by human subjects (including some subjects 70+ years of age, where oral alkalinity is commonly more prevalent) to stimulate the flow of saliva. Prior to the experiment, the subjects fasted for 12 hours and abstained from oral hygiene for at least 24 hours (to enable spontaneous dental plaque bacterial growth and buildup on their teeth and other oral surfaces (Kleinberg. I., 1967, Arch. Oral Biol., 1457-1473)). As a result of this process, oral bacteria were dislodged by the inert paraffin wax from the teeth and oral soft tissue surfaces in the mouths of the human subjects. About 40 ml of whole saliva was then collected from each subject by expectoration into a 50 ml polypropylene centrifuge tube chilled by surrounding it with cracked ice (Korayem, M. R., Traudt, M., and Kleinberg, I., 1990; Sandham, H. J. and Kleinberg, I., 1973).
(§2) The saliva collected was centrifuged at 1740 g in an International Equipment Company clinical centrifuge (Needham Heights, Mass.) for 15 min. at 4° C. The supernatant was decanted and discarded. To wash the remaining bacterial sediment, 40 ml of ice-cold distilled water was added and mixed in a vortex mixer. The resulting sediment-water mixture was centrifuged at 1740 g for 15 min. at 4° C. The supernatant was again decanted and discarded. This bacterial sediment washing procedure was repeated twice. To the washed bacterial sediment, 10 ml of deionized water was added and the composition was then mixed briefly and thoroughly in a vortex mixer. The sediment was transferred to a 15 ml polypropylene centrifuge tube. The resulting suspension was centrifuged at 1740 g for 15 min. at 4° C. and the resulting supernatant was aspirated and discarded.
To the packed 1.0 ml of salivary sediment obtained after centrifugation, 1.0 ml of deionized water was added to make a 50% salivary sediment suspension for the preparation of the following standard incubation mixtures: salivary sediment at 16.7% (v/v), with and without added individual amino acids: serine, glycine, alanine, valine, and/or histidine, etc. at either a 90 or 120 mM concentration; and leucine, isoleucine, aspartic acid, glutamine, cysteine, cystine, lysine, arginine, tyrosine, phenylalanine, threonine, proline, methionine, tyrosine, glutamine, and/or asparagine, each at 9 mM. These mixtures were each prepared in the presence or absence of 28 mM urea, which has a relatively high pH.
The initial pH of the incubation mixtures was carefully adjusted to or near 7.0 with either 1.0 M NaOH or 1.0 M HCl. Each bacterial mixture was then incubated overnight in a water bath at 37° C. The pH of each mixture was then determined using a combined pH and reference electrode (Radiometer Analytical SAS, Villeurbanne, France) at pre-determined time intervals.

human salivary sediment [2] = test: pH response of salivary sediment with serine, with or without sodium phytate and 6.7 mM urea
Method: as §1, §2
Separately, incubation mixtures containing salivary sediment at 16.7% (v/v) and 6.7 or 8.3 mM serine in the presence or absence of 6.7 mM urea, 20 or 25 mM serine and/or 3 mM sodium phytate (Sigma-Aldrich, St. Louis, Mo.), both in the presence or absence of 6.7 mM urea were prepared. Mixtures were incubated overnight at 37° C. in a water bath incubator (Kleinberg, I. and Hall, G., 1968; Salako, N. O. and Kleinberg, I., 1989), after adjusting the initial pH to or near 7.0 with 1N NaOH or 1N HCl.
Separately, incubation mixtures containing salivary sediment at 16.7% (v/v), 20 or 25 mM serine, and 6 mM sodium phytate were prepared in the presence or absence of 6.7 mM urea. Mixtures were incubated overnight at 37° C. in a water bath incubator, after adjusting the initial pH to or near 7.0 with 1N NaOH or 1N HCl. […]

human salivary sediment [3] = test: pH response of salivary sediment when initial pH was not adjusted to neutrality
Method: Separately, incubation mixtures containing salivary sediment at 16.7% (v/v), 238 mM serine, and 6 mM sodium phytate, with or without 6.7 mM urea, were prepared and incubated without adjusting the initial pH to or near 7.0, except for salivary sediment mixed with deionized water, which was adjusted to pH 8.10 with 1 M NaOH. Determination of the pH of each of these experimental entities were carried out at pre-determined time intervals (i.e., at 0 min., 15 min., 30 min., 1 h, 2 h, 3 h, 4 h, and 21 h) with a pH meter (Radiometer Copenhagen, type PHM26, Radiometer America, Westlake, Ohio) and a combination pH electrode (Radiometer Analytical, Cedex, France).

[4] = 90 mM amino acid + 28 mM urea, 4 hours
[5] = 90 mM amino acid + 28 mM urea, 21 hours
[6] = 120 mM amino acid + 28 mM urea, 4 hours
[7] = 120 mM amino acid + 28 mM urea, 21 hours
[8] = 9 mM amino acid + 28 mM urea, 21 hours (overnight)
[9] = 9 mM amino acid, without urea, 21 hours (overnight)
[10] = 9 mM amino acid + 28 mM urea, 4 hours
[11] = 9 mM amino acid, without urea, 4 hours

Row | SMILES | pH of salivary sediment (human salivary sediment [1]; [8]) | pH of salivary sediment (human salivary sediment [1]; [9]) | pH of salivary sediment (human salivary sediment [1]; [10]) | pH of salivary sediment (human salivary sediment [1]; [11]) | further results
1 | C[C@H](N)C(=O)O [alanine] | – | – | – | – | pH of salivary sediment (human salivary sediment [1]; [4]): 8.82; pH of salivary sediment (human salivary sediment [1]; [5]): 8.80; pH of salivary sediment (human salivary sediment [1]; [6]): 8.72; pH of salivary sediment (human salivary sediment [1]; [7]): 8.67
2 | N=C(N)NCCC[C@H](N)C(=O)O [arginine] | 8.80 | 7.97 | – | – | –
3 | NC(=O)C[C@H](N)C(=O)O [asparagine] | 8.70 | 7.35 | 8.90 | 6.55 | –
4 | N[C@@H](CC(=O)O)C(=O)O [aspartic acid] | 8.60 | 7.00 | 8.90 | – | –
5 | N[C@@H](CS)C(=O)O [cysteine] | 8.55 | 6.60 | 8.75 | 6.35 | –
6 | N[C@@H](CSSC[C@H](N)C(=O)O)C(=O)O [cystine] | 8.50 | 6.35 | 8.80 | – | –
7 | N[C@@H](CCC(=O)O)C(=O)O [glutamic acid] | 8.50 | 6.70 | 8.90 | – | –
8 | NC(=O)CC[C@H](N)C(=O)O [glutamine] | 8.80 | 6.25 | 9.00 | 5.95 | –
9 | NCC(=O)O [glycine] | – | – | – | – | pH of salivary sediment (human salivary sediment [1]; [4]): 8.72; pH of salivary sediment (human salivary sediment [1]; [5]): 8.65; pH of salivary sediment (human salivary sediment [1]; [6]): 8.90; pH of salivary sediment (human salivary sediment [1]; [7]): 8.55
10 | N[C@@H](Cc1c[nH]cn1)C(=O)O [histidine] | – | – | – | – | pH of salivary sediment (human salivary sediment [1]; [5]): 8.30; pH of salivary sediment (human salivary sediment [1]; [7]): 8.22
11 | CC[C@H](C)[C@H](N)C(=O)O [isoleucine] | 8.65 | 6.62 | 8.90 | 6.40 | –
12 | CC(C)C[C@H](N)C(=O)O [leucine] | 8.60 | 6.40 | 8.85 | 6.15 | –
13 | NCCCC[C@H](N)C(=O)O [lysine] | 8.70 | remained at neutrality | – | – | –
14 | CSCC[C@H](N)C(=O)O [methionine] | 8.90 | 6.20 | 9.00 | – | –
15 | N[C@@H](Cc1ccccc1)C(=O)O [phenylalanine] | 8.65 | – | 8.87 | – | –
16 | O=C(O)[C@@H]1CCCN1 [proline] | 8.80 | remained about unchanged | 9.00 | 6.10 | –
17 | N[C@@H](CO)C(=O)O [serine] | – | – | – | – | pH of salivary sediment (human salivary sediment [1]; [4]): 8.22; pH of salivary sediment (human salivary sediment [1]; [6]): 8.30; pH of salivary sediment (human salivary sediment [2]; 6.70 mM serine + 6.70 mM urea, 21 hours): 7.60; pH of salivary sediment (human salivary sediment [2]; 6.70 mM serine, without urea, 4 hours): 5.95; pH of salivary sediment (human salivary sediment [2]; 6.70 mM serine, without urea, 21 hours): 6.30; pH of salivary sediment (human salivary sediment [2]; 8.30 mM serine + 6.70 mM urea, 21 hours): 7.50; pH of salivary sediment (human salivary sediment [2]; 8.30 mM serine, without urea, 4 hours): 5.90; pH of salivary sediment (human salivary sediment [2]; 8.30 mM serine, without urea, 21 hours): 6.25; pH of salivary sediment (human salivary sediment [2]; 20 mM serine, absence of urea, 4 hours (FIG. 16, 6 mM sodium phytate series)): 7.15; pH of salivary sediment (human salivary sediment [2]; 20 mM serine, absence of urea, 4 hours, initial pH 6.90 (FIG. 15, 3 mM sodium phytate series)): 6.20; pH of salivary sediment (human salivary sediment [2]; 20 mM serine, absence of urea, 21 hours (FIG. 15, 3 mM sodium phytate series)): 6.65; pH of salivary sediment (human salivary sediment [2]; 20 mM serine, absence of urea, 21 hours (FIG. 16, 6 mM sodium phytate series)): 6.47; pH of salivary sediment (human salivary sediment [2]; 25 mM serine, absence of urea, 4 hours (FIG. 16, 6 mM sodium phytate series)): 6.17; pH of salivary sediment (human salivary sediment [2]; 25 mM serine, absence of urea, 4 hours, initial pH 7.00 (FIG. 15, 3 mM sodium phytate series)): 6.17; pH of salivary sediment (human salivary sediment [2]; 25 mM serine, absence of urea, 21 hours (FIG. 15, 3 mM sodium phytate series)): 6.70; pH of salivary sediment (human salivary sediment [2]; 25 mM serine, absence of urea, 21 hours (FIG. 16, 6 mM sodium phytate series)): 6.45; initial pH of incubation mixture (human salivary sediment [3]; absence of urea, initial pH not adjusted): 8.10; pH of incubation mixture (human salivary sediment [3]; absence of urea, initial pH not adjusted, 21 hours): 6.50; initial pH of incubation mixture (human salivary sediment [3]; with urea, initial pH not adjusted to 7.00): 8.10; pH of incubation mixture (human salivary sediment [3]; with urea, initial pH not adjusted, end of the incubation): 6.85
18 | C[C@@H](O)[C@H](N)C(=O)O [threonine] | 8.60 | remained about unchanged | 8.90 | 6.20 | –
19 | N[C@@H](Cc1c[nH]c2ccccc12)C(=O)O [tryptophan] | 8.90 | 6.20 | 9.00 | – | –
20 | N[C@@H](Cc1ccc(O)cc1)C(=O)O [tyrosine] | 8.62 | – | 8.87 | – | –
21 | NC(N)=O [urea] | – | – | – | – | pH of salivary sediment (human salivary sediment [1]; 28 mM urea alone, 4 hours): about 9.0; pH of salivary sediment (human salivary sediment [1]; 28 mM urea alone, 21 hours): 8.8
22 | CC(C)[C@H](N)C(=O)O [valine] | – | – | – | – | pH of salivary sediment (human salivary sediment [1]; [4]): 8.90; pH of salivary sediment (human salivary sediment [1]; [5]): 8.85; pH of salivary sediment (human salivary sediment [1]; [6]): 8.80; pH of salivary sediment (human salivary sediment [1]; [7]): 8.70

— patent publication US10076481B2, “Compositions for treating periodontitis and dental calculus accumulation” (The Research Foundation for the State University of New York, priority 2016, dated 2018)
